We go through 15 compounds from PubChem BioAssay AID228 (DTP/NCI, 2004).

“And” between values parts separate entries of the source, which are not always exact repeats. Equal entries are not always repeated. Inconclusive results are not listed.

For this assay, the system named is BDF1 mice, Friend leukemia sc, tumor weight T/C. In words: NCI In Vivo Anticancer Drug Screen. Data for tumor model Friend Virus Leukemia (Solid) (subcutaneous) in B6D2F1 (BDF1) mice. To be noted: endpoint: mean tumor weight, higher = larger tumour. The method, then:
The antitumor activity of compounds was measured in mice bearing transplantable tumors. Survival or tumor size were measured and the results are expressed as the measurement made in the treated group (T) divided by the measurement made in the vehicle treated control group (C). The tumor model used in this assay is Friend Virus Leukemia (Solid) (subcutaneous) in B6D2F1 (BDF1) mice

Setting [1] is: dose: 5.0 mg/kg/injection, schedule: Q01DX011 (ip), vehicle: carboxymethylcellulose (CMC).
The mark [2] stands for this setting: dose: 10.0 mg/kg/injection, schedule: Q01DX011 (ip), vehicle: carboxymethylcellulose (CMC).
[3] abbreviates: dose: 20.0 mg/kg/injection, schedule: Q01DX011 (ip), vehicle: carboxymethylcellulose (CMC).
Where [4] appears, read: dose: 6.0 mg/kg/injection, schedule: Q01DX011 (ip), vehicle: carboxymethylcellulose (CMC).
Setting [5] is: dose: 100.0 mg/kg/injection, schedule: Q01DX011 (ip), vehicle: carboxymethylcellulose (CMC).
Where [6] appears, read: dose: 200.0 mg/kg/injection, schedule: Q01DX011 (ip), vehicle: carboxymethylcellulose (CMC).

For the compound `Cc1ncc(CO)c(C)c1O`, the T/C runs as follows: (dose: 22.75 mg/kg/injection, schedule: Q01DX011 (ip), vehicle: carboxymethylcellulose (CMC)) 54 % of control; (dose: 45.5 mg/kg/injection, schedule: Q01DX011 (ip), vehicle: carboxymethylcellulose (CMC)) 111 % of control; (dose: 121.0 mg/kg/injection, schedule: Q01DX011 (ip), vehicle: carboxymethylcellulose (CMC)) 84 % of control and 98 % of control; (dose: 126.0 mg/kg/injection, schedule: Q01DX011 (ip), vehicle: carboxymethylcellulose (CMC)) 112 % of control.
Consider `CN(N=O)C(=O)Nc1c[nH]c(=O)[nH]c1=O`, for which the T/C reads like this: under setting [1], 108 % of control; under setting [2], 93 % of control; under setting [3], 91 % of control; (dose: 40.0 mg/kg/injection, schedule: Q01DX011 (ip), vehicle: carboxymethylcellulose (CMC)) 39 % of control; (dose: 60.0 mg/kg/injection, schedule: Q01DX011 (ip), vehicle: carboxymethylcellulose (CMC)) 45 % of control; (dose: 80.0 mg/kg/injection, schedule: Q01DX011 (ip), vehicle: carboxymethylcellulose (CMC)) 23 % of control.
On to `O=P(c1ccccc1)(N1CC1)N1CC1`, for which the T/C is 106 % of control (dose: 6.0 mg/kg/injection, schedule: Q01DX011 (ip), vehicle: saline); 124 % of control (dose: 12.0 mg/kg/injection, schedule: Q01DX011 (ip), vehicle: saline); 80 % of control (dose: 24.0 mg/kg/injection, schedule: Q01DX011 (ip), vehicle: saline).
As to `COc1ccc2c3c1OC1C(O)C=CC4C(C2)N(C)CCC341` (stereo not drawn), the T/C (dose: 37.5 mg/kg/injection, schedule: Q01DX011 (ip), vehicle: saline) is 93 % of control; the T/C (dose: 50.0 mg/kg/injection, schedule: Q01DX011 (ip), vehicle: saline) was 119 % of control; the T/C (dose: 75.0 mg/kg/injection, schedule: Q01DX011 (ip), vehicle: saline) is 108 % of control.
Take `CCSCCC(N)C(=O)O` (stereo not drawn): the T/C by setting is: (dose: 10.2 mg/kg/injection, schedule: Q01DX011 (ip), vehicle: carboxymethylcellulose (CMC)) 114 % of control; (dose: 20.5 mg/kg/injection, schedule: Q01DX011 (ip), vehicle: carboxymethylcellulose (CMC)) 80 % of control; (dose: 41.0 mg/kg/injection, schedule: Q01DX011 (ip), vehicle: carboxymethylcellulose (CMC)) 109 % of control; (dose: 82.0 mg/kg/injection, schedule: Q01DX011 (ip), vehicle: carboxymethylcellulose (CMC)) 111 % of control.
For `CO[C@H]1CC[C@@]2(C)[C@@H](CC[C@H]3[C@@H]4C[C@H](O)C[C@@]4(C)CC[C@@H]32)C1`, the T/C reads like this: (dose: 10.0 mg/kg/injection, schedule: Q01DX011 (sc), vehicle: steriod suspending solution) 108 % of control; (dose: 15.0 mg/kg/injection, schedule: Q01DX011 (sc), vehicle: steriod suspending solution) 104 % of control.
As to `C1CN1c1nc(N2CC2)nc(N2CC2)n1`, the T/C is 164 % of control and 233 % of control (dose: 0.05 mg/kg/injection, schedule: Q01DX011 (ip), vehicle: carboxymethylcellulose (CMC)); 161 % of control and 293 % of control (dose: 0.1 mg/kg/injection, schedule: Q01DX011 (ip), vehicle: carboxymethylcellulose (CMC)); 114 % of control (dose: 0.12 mg/kg/injection, schedule: Q01DX011 (ip), vehicle: carboxymethylcellulose (CMC)); 41 % of control (dose: 0.15 mg/kg/injection, schedule: Q01DX011 (ip), vehicle: carboxymethylcellulose (CMC)); 169 % of control and 256 % of control (dose: 0.2 mg/kg/injection, schedule: Q01DX011 (ip), vehicle: carboxymethylcellulose (CMC)); 61 % of control and 76 % of control (dose: 0.2 mg/kg/injection, schedule: Q01DX011 (ip), vehicle: saline). Besides, the T/C runs as follows: (dose: 0.3 mg/kg/injection, schedule: Q01DX011 (ip), vehicle: carboxymethylcellulose (CMC)) 26 % of control; (dose: 0.3 mg/kg/injection, schedule: Q01DX011 (ip), vehicle: saline) 49 % of control; (dose: 0.4 mg/kg/injection, schedule: Q01DX011 (ip), vehicle: carboxymethylcellulose (CMC)) 68 % of control and 85 % of control; (dose: 0.4 mg/kg/injection, schedule: Q01DX011 (ip), vehicle: saline) 31 % of control and 35 % of control; (dose: 0.6 mg/kg/injection, schedule: Q01DX011 (ip), vehicle: carboxymethylcellulose (CMC)) 24 % of control.
Take `NC(Cc1ccc(N(CCCl)CCCl)cc1)C(=O)O` (stereo not drawn): the T/C (dose: 0.32 mg/kg/injection, schedule: Q01DX011 (ip), vehicle: carboxymethylcellulose (CMC)) was 101 % of control; the T/C (dose: 0.64 mg/kg/injection, schedule: Q01DX011 (ip), vehicle: carboxymethylcellulose (CMC)) is 87 % of control; the T/C (dose: 1.0 mg/kg/injection, schedule: Q01DX011 (ip), vehicle: carboxymethylcellulose (CMC)) is 65 % of control; the T/C (dose: 1.28 mg/kg/injection, schedule: Q01DX011 (ip), vehicle: carboxymethylcellulose (CMC)) is 101 % of control; the T/C (dose: 2.0 mg/kg/injection, schedule: Q01DX011 (ip), vehicle: carboxymethylcellulose (CMC)) was 60 % of control; the T/C (dose: 2.56 mg/kg/injection, schedule: Q01DX011 (ip), vehicle: carboxymethylcellulose (CMC)) was 70 % of control. Besides, the T/C runs as follows: (dose: 3.0 mg/kg/injection, schedule: Q01DX011 (ip), vehicle: carboxymethylcellulose (CMC)) 57 % of control; (dose: 4.0 mg/kg/injection, schedule: Q01DX011 (ip), vehicle: carboxymethylcellulose (CMC)) 32 % of control; under setting [1], 36 % of control; under setting [4], 13 % of control; (dose: 8.0 mg/kg/injection, schedule: Q01DX011 (ip), vehicle: carboxymethylcellulose (CMC)) 7 % of control.
For the compound `CC1(C)N=C(N)N=C(N)N1c1cccc(Cl)c1`, the T/C by setting is: (dose: 2.3 mg/kg/injection, schedule: Q01DX011 (ip), vehicle: carboxymethylcellulose (CMC)) 91 % of control; (dose: 4.6 mg/kg/injection, schedule: Q01DX011 (ip), vehicle: carboxymethylcellulose (CMC)) 104 % of control; (dose: 9.2 mg/kg/injection, schedule: Q01DX011 (ip), vehicle: carboxymethylcellulose (CMC)) 108 % of control.
`O=C(Nc1ccc(C2=NCCN2)cc1)c1ccc(C(=O)Nc2ccc(C3=NCCN3)cc2)c(Cl)c1`: the T/C is, setting by setting: (dose: 0.31 mg/kg/injection, schedule: Q01DX011 (ip), vehicle: carboxymethylcellulose (CMC)) 66 % of control; (dose: 0.5 mg/kg/injection, schedule: Q01DX011 (ip), vehicle: carboxymethylcellulose (CMC)) 93 % of control; (dose: 0.63 mg/kg/injection, schedule: Q01DX011 (ip), vehicle: carboxymethylcellulose (CMC)) 50 % of control; (dose: 1.25 mg/kg/injection, schedule: Q01DX011 (ip), vehicle: carboxymethylcellulose (CMC)) 40 % of control and 46 % of control; (dose: 2.5 mg/kg/injection, schedule: Q01DX011 (ip), vehicle: carboxymethylcellulose (CMC)) 39 % of control; under setting [2], 93 % of control. Moreover, the T/C runs as follows: (dose: 15.0 mg/kg/injection, schedule: Q01DX011 (ip), vehicle: carboxymethylcellulose (CMC)) 21 % of control [middle of 4 runs]; under setting [3], 6 % of control.
For the compound `O=C1C=CC(=Nc2ccc(O)c3ncccc23)c2cccnc21`, the T/C runs as follows: under setting [4], 71 % of control; (dose: 12.5 mg/kg/injection, schedule: Q01DX011 (ip), vehicle: carboxymethylcellulose (CMC)) 84 % of control.
As to `NNC(=O)NC(=O)NN`, the T/C is 90 % of control (dose: 9.62 mg/kg/injection, schedule: Q01DX011 (ip), vehicle: carboxymethylcellulose (CMC)); 100 % of control (dose: 19.25 mg/kg/injection, schedule: Q01DX011 (ip), vehicle: carboxymethylcellulose (CMC)); 105 % of control (dose: 77.0 mg/kg/injection, schedule: Q01DX011 (ip), vehicle: carboxymethylcellulose (CMC)).
With `Nc1nc(N)c(N=Nc2ccccc2)c(=O)[nH]1`, the T/C was 74 % of control (dose: 50.0 mg/kg/injection, schedule: Q01DX011 (ip), vehicle: carboxymethylcellulose (CMC)); 70 % of control under setting [5]; 60 % of control under setting [6].
`COc1ccccc1NC(=O)CSC(N)=O`: the T/C is 91 % of control under setting [5]; 104 % of control under setting [6]; 71 % of control (dose: 400.0 mg/kg/injection, schedule: Q01DX011 (ip), vehicle: carboxymethylcellulose (CMC)).
For the compound `Cc1cc2nc3c(=O)[nH]c(=O)nc-3n(CC(O)C(O)C(O)C(O)CO)c2cc1C` (stereo not drawn), the T/C (dose: 56.0 mg/kg/injection, schedule: Q01DX011 (ip), vehicle: carboxymethylcellulose (CMC)) is 103 % of control and the T/C (dose: 113.0 mg/kg/injection, schedule: Q01DX011 (ip), vehicle: carboxymethylcellulose (CMC)) was 110 % of control.
